Assay results as given in US20240383953A1, “NOVEL NAN[…] NANOG PRION-LIKE REPEATS” (BAYLOR COLLEGE OF MEDICINE, priority 2021, published 2024).
Read-outs that look alike come from different tables or passages of the source.

Legend:
[1] = test system: Gata6-AF488 and Gata6-AF647 DNA; experiment: Intermolecular diffusion smFRET DNA bridging; format: binding; details: 250 nM NANOG WT
Experimental: (§1) FIGS. 6A-6G provide data related to intermolecular DNA bridging through NANOG assemblies. […] The peak at EFRET ˜0 corresponds to AF488-conjugated unbound/bound DNA. FIGS. 6E1-4 show representative cross-correlation FCCS curves of Gata6-AF488 and Gata6-AF647 with various concentrations of WT ((i) 0 nM; (ii) 63 nM; (iii) 875 nM) and W8A mutant ((iv) 875 nM). […] Nad and diffusion coefficients were derived and calculated from FCCS fits (Methods). […] Through prion-like assembly, NANOG can initiate intragenomic (promoter-enhancer) contacts, as well as connecting distant intergenomic loci to form superenhancer clusters with other TFs and coactivators (green/yellow).
To test the DNA bridging hypothesis, Applicant performed single molecule FRET (smFRET) diffusion experiments. Intermolecular diffusion smFRET is challenging due to low chance encounters at dilute pM concentrations. Gata6 DNAs were independently labeled with AF488 or AF647. […] However, in the presence of 250 nM NANOG WT.

[2] = biological target: dsDNA GATA6-AF488/GATA6-AF647; experiment: fEMSA with dsDNA; format: binding
Experimental: (§2) Basic residues, 3 Arg and 2 Lys, were incorporated for nucleic acid recognition. […] Similar results were obtained from two independent experiments. FIG. 8C (left panels) show photon bursts distribution of dsDNAs alone (GATA6-AF488 and GATA6-AF647; top) or with 7.5 μM (0.03 mg/mL) 1-4wRK peptide (bottom). Middle panels of FIG. 8C show FCCS curves for corresponding photon fluctuations shown in the left panels. […] Similar results were obtained from three independent experiments. […] Similar results were obtained from three independent experiments. […] Error bars were calculated from three independent measurements. […] Similar results were obtained from two independent experiments.
(§3) ThT binding to amyloid β-sheet emits maximally at ˜490 nm. Similar results were obtained from 2 independent experiments. […] Similar results were obtained from 2 independent experiments.
(§4) Applicant observed nucleic acid interactions by fluorescence electrophoretic mobility shift assays (fEMSA). […] Moreover, the 1-4wRK peptide was also potent in recognizing single stranded DNA (ssDNA (TG)6) and RNA (ssRNA (UUAGGG)4-AF488/AF594).
(§5) By EMSA, almost all DNAs were bound at […] or 0.03 mg/mL 1-3wRRK. […] This was further corroborated by fluorescence polarization measurements.

[3] = test system: Gata6-AF488 and Gata6-AF647 DNA; experiment: FCCS DNA bridging by NANOG; format: binding
Experimental: as §1
To further validate NANOG-dependent DNA bridging, Applicant resorted to fluorescence cross-correlation technique (FCCS). Binding of individual DNAs (differentially labeled with AF488 and AF647) to form a complex would result in correlated fluorescence signals.
FCCS experiments with various NANOG concentrations confirmed cross-correlation with as little as ˜30 nM WT NANOG (FIG. 6F). The increase in cross-correlated particles coincided with a decrease in molecular complex diffusion coefficient (bright lower line, FIG. 6F). Without being bound by theory, the decrease in cross-correlated particles at high NANOG concentrations may reflect competition for DNA with excess NANOG.

[4] = test system: ssDNA (TG)6 and ssRNA (UUAGGG)4-AF488/AF594; experiment: fEMSA with single stranded nucleic acids; format: binding; details: immobilized in the gel wells
Experimental: as §2, §4

[5] = test system: GATA6-AF488 and GATA6-AF647; experiment: FCCS DNA bridging by peptides; format: binding
Experimental: as §2
ThT binding to amyloid β-sheet emits maximally at ˜490 nm. Similar results were obtained from 2 independent experiments. […]
Applicant also tested the minipeptides' ability to bring together independent DNA molecules in solution. Using Fluorescence Cross-Correlation Spectroscopy (FCCS), Applicant observed an absence of cross-correlation between differentially fluorescently labeled DNAs (GATA6-AF488 and GATA6-AF647) without the peptide. […]
The significant 1-3wRK DNA-bridging competency was further confirmed by FCCS titration data and burst analysis, where Applicant observed cross-correlation even at ˜30 nM 1-3wRRK. […] Applicant demarcated the LLPS regimes using turbidity assay (UV absorbance at 350 nm; FIG. 8J). […]

[6] = test system: DNA; experiment: LLPS turbidity assay (UV absorbance at 350 nm); format: physicochemical
Experimental: as §3
The significant 1-3wRK DNA-bridging competency was further confirmed by FCCS titration data and burst analysis, where Applicant observed cross-correlation even at ˜30 nM 1-3wRRK. Applicant next investigated whether the peptides' ability to form nano-assemblies also correlated with their capacity to drive mesoscale condensates. Applicant demarcated the LLPS regimes using turbidity assay (UV absorbance at 350 nm; FIG. 8J). The LLPS data (presented in mg/mL concentration unit in FIG. 8J) reflected the behaviors observed at nanoscale level.

[7] = test system: GATA6 dsDNA; experiment: Fluorescence polarization binding measurements; details: Hill binding equation, mean±SD
Source text: as §3
Since 1-3wRRK became soluble and much less aggregation-prone on its own, Applicant determined if the WR repeat (steric zipper region) was affected by changes in physical properties and still contributed towards recognizing DNA. Applicant compared its DNA binding capability to TAT and 1-4wRK by EMSA and fluorescence polarization measurements (FIGS. 9G-9H). Applicant observed that 1-3wRRK binds DNA more effectively than 1-4wRK, mostly likely due to the extra basic residues (FIGS. 8B, 9G, and 9H).
as §5

[8] = test system: fluorescent proteins h6GeGFP and h6GmCherry; experiment: Co-partitioning with fluorescent proteins; details: h6GeGFP and h6GmCherry 5 μM
Experimental: as §2
Applicant used burst analysis to quantify sizes of the oligomeric species. The average fluctuations were assumed to represent monomeric species, and any degree of deviations from average were characterized as the oligomeric states. Applicant observed numerous heterogeneous oligomeric states that increased in molecular sizes with increasing peptide concentration (FIGS. 8D-8E). Because NANOG is also known as a ‘molecular hub’ protein capable of interactions with many proteins with its WR domain, Applicant tested whether the WR peptide mimetics could non-specifically recruit random proteins (e.g., fluorescent proteins h6GeGFP and h6GmCherry for convenient visualization). […]

Row | Substance | proximity of separate DNAs [1] | Kd ([2]; full-length NANOG, for comparison, read-out: dsDNA affinity) | cross-correlation of differentially labeled DNAs [3] | lowest concentration giving cross-correlation [3] | peptide concentration giving completely bound peptide:nucleic acid complexes [4] | cross-correlation (DNA bridging) ([5]; 0.9 μM peptides) | lowest peptide concentration giving cross-correlation ([5]; FCCS titration) | aggregation without DNA ([6]; 0.2 mg/mL peptide) | potency in driving DNA:peptide LLPS ([6]; turbidity Abs350 nm>0.07 = LLPS positive) | cooperativity n [7] | binding constant Ka ([7]; n=3) | Kd ([2]; fEMSA, read-out: dsDNA affinity (50% free DNA)) | peptide concentration giving visible precipitates of fluorescent proteins [8]
1 | NANOG WT | ≤ 70 Å | 30 to 60 nM | significant cross-correlation | ~30 nM |  |  |  |  |  |  |  |  | 
2 | WSNQTWNNSTWSNQTQNIQSWSNHSRRRKK [1-4wRK] |  |  |  |  | 60 to 250 nM | small degree of cross-correlation | 1 µM | aggregates even without DNA | more effective than TAT at higher concentrations of DNA | 3.3±1.2 | 340 ± 110 nM | ~1000 nM | ~0.3 mg/mL
